Patent US20220089638A1, “DITHIOCARBAMATE STAPLED PEPTIDES AND METHODS OF MAKING AND USE THEREOF” (UNIVERSITY OF MARYLAND, BALTIMORE, priority 2019, published 2022)
Where a SMILES comes first, the peptide text is derived from it. Bridges are numbered along the chain shown (N, C = ends). [ ]: non-standard residue; d: D form. S5 = C=CCCC[C@](C)(N)C(=O)O

Columns and labels:
[1] = Circular dichroism spectroscopy, percent α-helix; type: physicochemical; conditions: CD spectroscopy
Description: Circular Dichroism (CD) Spectroscopy.

[2] = tested on: HCT116 p53^−/−; experiment: Cell viability assay (CCK8), HCT116 p53-/-; type: cell-based, human; conditions: 100 μM
Experimental: Cell Viability Assay. […] The absorbance at 450 nm was then measured followed by the addition of CCK8 kit, and percent cell viability was calculated on the ratio of the A450 of sample wells versus reference wells.

[3] = tested on: p53, MDM2 and p21 in HCT116 p53^+/+ cells; experiment: Western blot analysis of MDM2, p21 and p53 expression; type: cell-based, human; conditions: 8 h after treatment, 10, 20, 30 μM
Experimental: Western Blot Analysis. […] The cells were lysed (20 mM Tris-HCl pH 8.0, 0.8% SDS, 1 mM PMSF, 1 U mL^−1 benzonase nuclease) and the crude lysates were clarified by brief centrifugation and total protein concentration was determined by using the Pierce BCA protein assay. Aliquots containing 5 μg of total protein were run on 4-12% Bis-Tris polyacrylamide gels (Invitrogen).

[4] = tested on: HCT116 p53^+/+ cells; experiment: Cell apoptosis assay (annexin V-FITC/PI flow cytometry), HCT116 p53+/+; type: cell-based, human; conditions: 10, 20, or 30 μM
Experimental: (§1) Cell Apoptosis Assay. […] No treatment controls were established. Culture medium that may contain detached cells was collected, and attached cells were trypsinized. After centrifugation and removal of the supernatants, cells were resuspended in 300 μL of 1×binding buffer which was then added to 5 μL of annexin V-FITC and incubated at room temperature for 15 min. After addition of 10 μL of PI, the cells were incubated at room temperature for another 10 min in the dark. The stained cells were analyzed by a flow cytometer (BD-FACSVerse).

[5] = tested on: HCT116 p53^−/− cells; experiment: Cell apoptosis assay (annexin V-FITC/PI flow cytometry), HCT116 p53-/-; type: cell-based, human; conditions: identical treatment conditions, 10, 20, or 30 μM
Experimental: as §1

[6] = tested on: HCT116 p53^+/+ cells; experiment: Cellular uptake by confocal microscopy; type: cell-based, human; conditions: FITC-labeled peptide, 20 μM, 4 h
Experimental: Cellular uptake of ^DTCPMI. […] Cells were then incubated with 20 μM FITC-^DTCPMI Ctrl. or FITC-^DTCPMI for 4 h. Cells were washed with Dulbecco's phosphate buffered saline, fixed with 4% (wt/vol) paraformaldehyde, finally incubated by DAPI to stain the cell nucleus. Imaged using an LSM 510 Zeiss Axiovert 200M (v4.0) confocal microscope. Images were analyzed using an LSM image browser.

[7] = Comparison of solubility between DTC and hydrocarbon link (OD 600 nm in PBS); type: physicochemical; conditions: PBS buffer, 2-fold serial dilution from 20 mg/ml, OD at 600 nm
Experimental: Comparison of Solubility between DTC and Hydrocarbon link. […] OD values were measured at 600 nm on a Biotech Synergy 4 plate reader. PBS was set as blank control.

| SMILES | α-helix (%) ([1]; Table 3) | α-helix (%) ([1]; Table 7) | cell viability of HCT116 p53-/- cells at high concentration [2] | induction of p53, MDM2 and p21 (Western blotting) [3] | induction of apoptosis of HCT116 p53+/+ cells (FACS) [4] | apoptosis of HCT116 p53-/- cells (FACS) [5] | intracellular localization / cellular uptake (confocal microscopy) [6] | solubility [7] [µg/mL] |
| --- | --- | --- | --- | --- | --- | --- | --- | --- |
| CC(=O)N[C@H](C(=O)N[C@@H](CO)C(=O)N[C@@H](Cc1ccccc1)C(=O)N[C@H]1CCCCNC(=S)SC[C@@H](C(=O)N[C@@H](CC(C)C)C(=O)N[C@@H](CC(C)C)C(=O)N[C@@H](CO)C(=O)N[C@@H](CCCNC(=N)N)C(N)=O)NC(=O)[C@H](Cc2c[nH]c3ccccc23)NC(=O)[C@H](Cc2ccc(O)cc2)NC(=O)[C@H](CCC(N)=O)NC1=O)[C@@H](C)O [^DTCPMI] | 76 | 62.2 | significantly reduced cell viability | dose-dependent induction of p53, MDM2 and p21 | dose-dependent induction of apoptosis | no obvious apoptosis | diffused intracellular localization, demonstrating efficient cellular uptake | – |
| CC(=O)N[C@H](C(=O)N[C@@H](CO)C(=O)N[C@@H](Cc1ccccc1)C(=O)N[C@@]1(C)CCCC=CCCC[C@@](C)(C(=O)N[C@@H](CC(C)C)C(=O)N[C@@H](CC(C)C)C(=O)N[C@@H](CO)C(=O)N[C@@H](CCCNC(=N)N)C(N)=O)NC(=O)[C@H](Cc2c[nH]c3ccccc23)NC(=O)[C@H](Cc2ccc(O)cc2)NC(=O)[C@H](CCC(N)=O)NC1=O)[C@@H](C)O [^HCPMI] (Ac-TSF[S5]QYW[S5]LLSR-NH2; staple 4-8) | – | – | – | – | – | – | – | ≥ 300 |
